Patent US20230107216A1, “PANTETHEINE DERIVATIVES AND USES THEREOF” (Comet Therapeutics, Inc., priority 2018, published 2023)
Read-outs that look alike come from different tables or passages of the source.

Columns and labels:
[1] = test system: Dermal fibroblasts (HDF3CGF system); experiment: BioMAP HDF3CGF system (IL-1β, TNFα, IFNγ, EGF, bFGF, PDGF-BB); assay type: cell-based, human; details: for activation at 10 µM: 72 h, read-out: % increase in 72 Hour Proliferation
[2] = test system: Coronary artery smooth muscle cells (CASM3C system); experiment: BioMAP CASM3C system (IL-1β, TNFα, IFNγ); assay type: cell-based, human; details: for inhibition at 10 µM: Homo sapiens, 24 h, read-out: % decrease in Thrombomodulin
[3] = test system: Very long-chain acyl-CoA dehydrogenase (VLCAD) primary fibroblasts GM17475; experiment: NADP+/NADPH (NADP/NADPH-Glo), VLCAD fibroblasts GM17475; assay type: cell-based; details: Homo sapiens, Fibroblast, 24h, read-out: Increase in Total NADP+ + NADPH
Experimental: (§1) Primary adherent fibroblasts were cultured in minimum essential medium (MEM) (Gibco, 25030081) supplemented with 2 mM L-Glutamine (Gibco, 25030081), 15% fetal bovine serum (FBS) (Gibco, 26400044) and 1% penicillin/streptomycin (Gibco, 5140122) at 37° C. and 5% CO2. Cells were collected for either passaging or experiment at ˜70-80% confluence. Cells were obtained by trypsinization and seeded in cell culture microplates either white plate (Thermo Fisher Scientific, 152028) for luminescent measurement or black plate (Thermo Fisher Scientific, 165305) for fluorescent based read out for different assays listed below. Cells were obtained by trypsinization and […] were seeded and allowed to adhere for 16-18 hours to have confluency around 70-80% in the cell well with culture media. After 24 hours prior to measurements (37° C., 5% CO2) media was changed to Dulbecco's Modified Eagle Medium (DMEM, Agilent Seahorse cat #103575-100) with the appropriate supplements as stated below.
(§2) Primary fibroblasts assayed were Propionic Acidemia (PA) (GM03590 Coriell Institute for Medical Research, Tsi 6337 Trans-Hit Bio), Methylmalonic Acidemia (MMA) (Tsi 5224 Trans-Hit Bio), Subnormal activation of pyruvate dehydrogenase complex (PDH) (GM01503 Coriell Institute for Medical Research), Very long-chain acyl-CoA dehydrogenase (VLCAD) (GM17475), Leigh Syndrome (LS) (GM03672, GM13411 Coriell Institute for Medical Research), Pyruvate Carboxylase Deficiency (PC) (GM00444 Coriell Institute for Medical Research). 10 μM of Compounds were added for 2 hours in PA, MMA lines and for 24h for the other fibroblast lines.
(§3) Assay was performed according to manufacturer instructions (NADP+/NADPH-Glo Assay Promega, G9082). Assay required a plate for total measurement of NADP+/NADPH and a plate for individual measurement of NADP+ or NADPH. For every assay a 12-point standard curve is prepared ranging from 400 nM to 0.625 nM. Media is removed and replaced with 50 μl of PBS for both assays.
(§4) For individual NADP+/NADPH measurements, 50 μl of 1% DTAB (Sigma, D5047) (cell lysis reagent) in 0.2N NaOH was added to the plates and 100 μl of lysate was split into two plates with 50 μl each from which ratio of NADP/NADPH can be calculated. 25 μl of 0.4N HCl were added to the NADP+ plates and both NADP+ and NADPH plates were heated at 60° C. for 15 minutes. The acid and heat treatment destroyed NADPH allowing individual NADP+ measurements while heating in basic conditions destroys NADP+ allowing individual NADPH measurement. After 15 minutes plates were allowed to come to room temperature and Trizma base (Sigma, T1699) was added to the NADP+ plates to neutralize the acid and HCl Trizma hydrochloride (Sigma, T2694) was added to the NADPH plates. The NADNADPH glo reagent was prepared by adding 125 μl of NAD cycling substrate, 125 μl of reductase, 125 μl of reductase substrate, 125 μl NAD cycling enzyme to a total of the 25 ml of NAD GLO reagent. 1:1 ratio of total volume of reagent was added to the individual NADP+, NADPH measurements (total 100 μl) and 50 μl were added for the total NAD/NADPH measurements. Luminescence was measured for 30-60 minutes within the linear range.
(§5) A total dead cell count was performed as described in Example 817 and only alive cells were used for analysis.

[4] = test system: Leigh Syndrome (LS) primary fibroblasts GM03672; experiment: NADP+/NADPH (NADP/NADPH-Glo), Leigh fibroblasts GM03672; assay type: cell-based; details: Homo sapiens, Fibroblast, Leigh GM03672 P9, assay condition A (10 mM glucose, 2 mM L-glutamine, 1 mM pyruvate, 10% FBS), 24h, read-out: Increase in Total NADP+ + NADPH
Experimental: as §1, §2, §3, §4, §5

[5] = test system: Subnormal activation of pyruvate dehydrogenase complex (PDH) primary fibroblasts GM01503; experiment: NADP+/NADPH (NADP/NADPH-Glo), PDH fibroblasts GM01503; assay type: cell-based; details: Homo sapiens, Fibroblast, PDH GM01503 P10, assay condition A (10 mM glucose, 2 mM L-glutamine, 1 mM pyruvate, 10% FBS), 24h, read-out: Increase in Total NADP+ + NADPH
Experimental: as §1, §2, §3, §4, §5

[6] = 10 uM, procedure of Example 833
[7] = Homo sapiens, Fibroblast, 24 h, 10 uM, read-out: % decrease in Collagen III
[8] = VLCAD GM17475 P10, assay condition A (10 mM glucose, 2 mM L-glutamine, 1 mM pyruvate, 10% FBS)
[9] = VLCAD GM17475 P10, assay condition B (1 mM glucose, 2 mM L-glutamine, 1 mM pyruvate, 10% FBS)
[10] = Homo sapiens, Fibroblast, 10 uM
[11] = 10 uM, procedure of Example 832

Compound: CC(=O)SCCNC(=O)CCNC(=O)[C@H](O)C(C)(C)COC(=O)[C@@H](N)Cc1ccc(O)c(O)c1 [Compound 498, (3R)-3-[(2-[[2-(acetylsulfanyl)ethyl]carbamoyl]ethyl)carbamoyl]-3-hydroxy-2,2-dimethylpropyl (2S)-2-amino-3-(3,4-dihydroxyphenyl)propanoate]
- % decrease in TIMP-2 ([1]; 1 uM): ≥10%
- % increase in M-CSF ([1]; 10 uM): ≥10%
- % increase in SRB ([1]; 10 uM): ≥10%
- % decrease in Collagen I [1, 6]: ≥10%
- inhibition at 10 µM [1, 7]: ≥ 10%
- % increase in IL-6 ([2]; 1 uM, procedure of Example 832): ≥10%

Compound: CC[C@@H](O)CC(=O)SCCNC(=O)CCNC(=O)[C@H](O)C(C)(C)CO [Compound 1245, (2R)-2,4-dihydroxy-N-{2-[(2-{[(3R)-3-hydroxypentanoyl]sulfanyl}ethyl)carbamoyl]ethyl}-3,3-dimethylbutanamide]
- activation at 10 µM [3, 8]: ≥ 10%

Compound: CC(O)CC(O)CC(=O)SCCNC(=O)CCNC(=O)[C@H](O)C(C)(C)CO (some centres unmarked) [Compound 400]
- activation at 10 µM [3, 9]: ≥ 10%

Compound: CC(O)CC(O)CC(O)CC(=O)SCCNC(=O)CCNC(=O)[C@H](O)C(C)(C)CO (some centres unmarked) [Compound 401]
- activation at 10 µM [3, 9]: ≥ 10%

Compound: COC(=O)CCC(=O)SCCNC(=O)CCNC(=O)[C@H](OC(=O)CN)C(C)(C)CO [Compound 1294, methyl 4-[(2-[3-[(2R)-2-[(2-aminoacetyl)oxy]-4-hydroxy-3,3-dimethylbutanamido]propanamido]ethyl)sulfanyl]-4-oxobutanoate]
- inhibition at 1 µM ([1]; Homo sapiens, Fibroblast, 24 h, 1 uM, read-out: % decrease in Collagen III): ≥ 10%
- activation at 10 µM [1, 10]: ≥ 20%
- % decrease in Tissue Factor ([2]; 1 uM): ≥10%
- % decrease in uPAR ([2]; 1 uM): ≥10%
- % decrease in M-CSF ([2]; 1 uM, procedure of Example 832): ≥10%
- % decrease in VCAM-1 ([2]; 1 uM, procedure of Example 832): ≥10%
- % decrease in HLA-DR ([2]; 10 uM): ≥10%
- inhibition at 10 µM ([2]; 10 uM): ≥ 20%
- activation at 10 µM [4]: ≥ 10%

Compound: C[C@@H](O)CC(=O)CC(=O)SCCNC(=O)CCNC(=O)[C@H](O)C(C)(C)CO [Compound 42, (2R)-2,4-dihydroxy-N-[2-[(2-[[(5R)-5-hydroxy-3-oxohexanoyl]sulfanyl]ethyl)carbamoyl]ethyl]-3,3-dimethylbutanamide]
- activation at 10 µM [3, 8]: ≥ 10%
- activation at 10 µM [5]: ≥ 10%
- % increase in M-CSF [2, 11]: ≥10%
- % increase in Proliferation [2, 11]: ≥10%

Compound: C[C@@H](O)CC(=O)SCCNC(=O)CCNC(=O)[C@H](O)C(C)(C)CO [Compound 38, S-2-{3-[(R)-2,4-dihydroxy-3,3-dimethylbutyrylamino]propionylamino} ethyl (R)-3-hydroxybutanethioate]
- activation at 10 µM [5]: ≥ 10%

Compound: CC(=O)SCCNC(=O)CCNC(=O)[C@H](O)C(C)(C)COC(=O)[C@H](C)N [Compound 502, (3R)-3-[(2-[[2-(acetylsulfanyl)ethyl]carbamoyl]ethyl)carbamoyl]-3-hydroxy-2,2-dimethylpropyl (2S)-2-aminopropanoate]
- activation at 10 µM [5]: ≥ 10%
- % increase in SRB ([1]; 1 uM): ≥10%
- inhibition at 10 µM ([2]; 10 uM): ≥ 10%

Compound: CC(O)C(C(=O)SCCNC(=O)CCNC(=O)[C@H](O)C(C)(C)CO)C(C)O (stereo partly drawn) [Compound 1285, (2R)-2,4-dihydroxy-N-[2-[(2-[[3-hydroxy-2-(1-hydroxyethyl)butanoyl]sulfanyl]ethyl)carbamoyl]ethyl]-3,3-dimethylbutanamide]
- activation at 10 µM [3, 8]: ≥ 10%
- activation at 10 µM [5]: ≥ 10%

Compound: COC(=O)CC(SCCNC(=O)CCNC(=O)[C@H](O)C(C)(C)COC(C)=O)C(=O)OC (stereo partly drawn) [Compound 149, 1,4-dimethyl 2-[(2-[3-[(2R)-4-(acetyloxy)-2-hydroxy-3,3-dimethylbutanamido]propanamido]ethyl)sulfanyl]butanedioate]
- % increase in Collagen I ([1]; 1 uM, procedure of Example 833): ≥10%
- % increase in IL-6 [2, 11]: ≥10%
- inhibition at 10 µM ([2]; 10 uM): ≥ 10%

Compound: CC(=O)SCCNC(=O)CCNC(=O)[C@H](O)C(C)(C)COC(=O)CCC(=O)O [Compound 1242, (R)-12-hydroxy-13,13-dimethyl-2,7,11,16-tetraoxo-15-oxa-3-thia-6,10-diazanonadecan-19-oic acid]
- activation at 10 µM [3, 8]: ≥ 10%

Compound: COC(=O)CCC(=O)SCCNC(=O)CCNC(=O)[C@H](O)C(C)(C)COC(C)=O [Compound 138]
- % decrease in Collagen I ([1]; 1 uM, procedure of Example 833): ≥10%
- inhibition at 10 µM ([2]; 10 uM): ≥ 10%

Compound: CCC(=O)CC(=O)SCCNC(=O)CCNC(=O)[C@H](O)C(C)(C)CO [Compound 382, (2R)-2,4-dihydroxy-3,3-dimethyl-N-[2-([2-[(3-oxopentanoyl)sulfanyl]ethyl]carbamoyl)ethyl]butanamide]
- activation at 10 µM [3, 8]: ≥ 10%
- activation at 10 µM [5]: ≥ 10%

Compound: CC(=O)OCC(C)(C)[C@@H](OC(C)=O)C(=O)NCCC(=O)NCCSC(C)=O [Compound 1264, (1R)-3-(acetyloxy)-1-[(2-[[2-(acetylsulfanyl)ethyl]carbamoyl]ethyl)carbamoyl]-2,2-dimethylpropyl acetate]
- activation at 10 µM [3, 8]: ≥ 10%
- activation at 10 µM [5]: ≥ 10%
- % increase in PAI-I ([1]; 1 uM): ≥10%
- % increase in TIMP-2 ([1]; 10 uM): ≥10%
- activation at 10 µM [1, 10]: ≥ 10%
- % increase in IL-6 ([2]; 1 uM, procedure of Example 832): ≥10%

Compound: CC(C)(CO)[C@@H](O)C(=O)NCCC(=O)NCCSC(=O)[C@@H](N)Cc1ccc(O)c(O)c1 [Compound 371, (2R)—N-[2-[(2-[[(2S)-2-amino-3-(3,4-dihydroxyphenyl)propanoyl]sulfanyl]ethyl)carbamoyl]ethyl]-2,4-dihydroxy-3,3-dimethylbutanamide]
- % increase in PAI-I ([1]; 10 uM): ≥10%
- % decrease in Collagen I [1, 6]: ≥10%
- inhibition at 10 µM [1, 7]: ≥ 10%

Compound: CCCCCCC(=O)SCCNC(=O)CCNC(=O)[C@H](O)C(C)(C)CO [Compound 372, (2R)—N-(2-[[2-(heptanoylsulfanyl)ethyl]carbamoyl]ethyl)-2,4-dihydroxy-3,3-dimethylbutanamide]
- % increase in PAI-I ([1]; 10 uM): ≥10%
- inhibition at 10 µM [1, 7]: ≥ 10%
- % decrease in LDLR ([2]; 1 uM, procedure of Example 832): ≥10%
- % decrease in VCAM-1 ([2]; 1 uM, procedure of Example 832): ≥10%
- inhibition at 10 µM ([2]; 10 uM): ≥ 10%

Compound: CC(C)(COC(=O)OCC[N+](C)(C)C)[C@@H](O)C(=O)NCCC(=O)NCCSC(=O)CCC(=O)O [Compound 116, [2-([[(3R)-3-[[2-([2-[(3-carboxypropanoyl)sulfanyl]ethyl]carbamoyl)ethyl]carbamoyl]-3-hydroxy-2,2-dimethylpropoxy]carbonyl]oxy)ethyl]trimethylazanium]
- % decrease in Collagen I [1, 6]: ≥10%
- % decrease in Proliferation ([2]; 1 uM, procedure of Example 832): ≥10%

Compound: CC(C)(CO)[C@@H](O)C(=O)NCCC(=O)NCCSC(=O)CCCO [Compound 1304, (2R)-2,4-dihydroxy-N-[2-([2-[(4-hydroxybutanoyl)sulfanyl]ethyl]carbamoyl)ethyl]-3,3-dimethylbutanamide]
- activation at 10 µM [5]: ≥ 10%
